Assay results from PMC10960024, “Diindoles produced from commensal microbiota metabolites function as endogenous CAR/Nr1i3 ligands” (Nature Communications, 2024).

Key:
hCAR LBD-SRC1 protein = molecular target: T1, hCAR LBD-SRC1 protein (Homo sapiens, UniProt Q14994); experiment: Fluorescence thermal shift assay (TSA); assay type: binding; conditions: diindoles at 12.5 µM; APO Tm 51.5 °C; means of triplicates
T1 construct: The human CAR LBD (Lys^108 – Ser^352) was amplified by PCR from cDNA; HIS6; made in house; host or cells: E. coli BL21(DE3)
T1 sequence (Q14994 108-352): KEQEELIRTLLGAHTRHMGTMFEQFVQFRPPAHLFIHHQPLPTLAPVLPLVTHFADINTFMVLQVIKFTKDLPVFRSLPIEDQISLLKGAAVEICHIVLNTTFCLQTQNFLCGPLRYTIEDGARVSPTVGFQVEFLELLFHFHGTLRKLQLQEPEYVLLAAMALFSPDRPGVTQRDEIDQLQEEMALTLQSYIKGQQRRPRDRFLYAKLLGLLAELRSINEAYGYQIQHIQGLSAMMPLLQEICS
Experimental: Purified hCAR LBD-SRC1 protein was assayed in 137 mM NaCl, 2.7 mM KCl, 10 mM Na2HPO4, and 1.8 mM KH2PO4, 0.5% DMSO, pH 7.4, at a final concentration of 2.2 µM. SYPRO Orange was used at a final concentration of 10× (Invitrogen, S6650). Each sample was divided into three 25 µL replicates. Sample solutions were dispensed into 96-well optical reaction plates (Thermo Fisher Scientific, 4306737) and sealed with optical PCR plate sheets (Thermo Fisher Scientific, AB-1170). TSA experiments were carried out using a QuantStudio 12 K Flex Real Time PCR System (Applied Biosystems). The temperature was ramped up from 25 °C to 95 °C at a rate of 0.3 °C/min, and SYPRO orange fluorescence monitored. Raw fluorescence data and melting temperatures were determined using nonlinear regression curve fitting using GraphPad Prism 9.

[1] = Diindole levels in tissues of WT and Nr1i3-/- mice; assay type: in vivo
Experimental: 12–15 week-old C57BL/6 J mice were obtained from Jackson Laboratories and were housed on a standard 12 h light/dark cycle. Nr1i3^−/− mice with C57BL/6 J background were obtained from David Moore’s lab (PMID: 11057673) at Baylor College of Medicine, and used at 13–26 weeks of age. Wild-type male, female and Nr1i3^−/− male mice were used in this study, due to known sex-specific CAR activities. Mice were housed in groups of 2–5 mice per cage on a standard 12 h light/dark cycle and fed with rodent chow diet (Inotiv, Teklad rodent diet 2918). Temperature was maintained at 21 °C with a range of 21–24 °C and humidity at 16–51%. National Institute of Health guidelines for the care and use of laboratory animals were followed with all experiments performed as directed by the Institutional Animal Care and Use Committee at the University of Illinois, Urbana-Champaign (UIUC, IACUC protocol: 22183). Mice were acclimatized to the UIUC mouse facility for 2 weeks prior to experiments. DIM and DIE were dissolved in 5% DMSO in corn oil and injected intraperitoneally at 25 mg/kg once daily for three days. After 4 h of the third injection, mice were sacrificed to collect serum, livers and intestines. […] Relative gene expression was calculated by the delta Ct method and normalized to 36b4 levels as loading controls. qPCR primers for gene expression analysis are listed in Supplementary Table 3.

Liver histology (H&E) = assay type: in vivo
Experimental: 12–15 week-old C57BL/6 J mice were obtained from Jackson Laboratories and were housed on a standard 12 h light/dark cycle. Nr1i3^−/− mice with C57BL/6 J background were obtained from David Moore’s lab (PMID: 11057673) at Baylor College of Medicine, and used at 13–26 weeks of age. Wild-type male, female and Nr1i3^−/− male mice were used in this study, due to known sex-specific CAR activities. Mice were housed in groups of 2–5 mice per cage on a standard 12 h light/dark cycle and fed with rodent chow diet (Inotiv, Teklad rodent diet 2918). Temperature was maintained at 21 °C with a range of 21–24 °C and humidity at 16–51%. National Institute of Health guidelines for the care and use of laboratory animals were followed with all experiments performed as directed by the Institutional Animal Care and Use Committee at the University of Illinois, Urbana-Champaign (UIUC, IACUC protocol: 22183). Mice were acclimatized to the UIUC mouse facility for 2 weeks prior to experiments. DIM and DIE were dissolved in 5% DMSO in corn oil and injected intraperitoneally at 25 mg/kg once daily for three days. After 4 h of the third injection, mice were sacrificed to collect serum, livers and intestines. TCPOBOP was dissolved in corn oil and injected intraperitoneally at 3 mg/kg once and the livers collected after 3 days for further studies. When used to block CAR activity, 100 mg/kg androstenol was injected intraperitoneally 15 min prior to the first DIM or DIE treatment. RNA from mice livers was isolated using TRIzol (Invitrogen) reagent using the manufacturer’s instructions. 3–5 µg of RNA was used to synthesize cDNA with random primers (NEBioLabs) and Maxima Reverse Transcriptase kits (Thermo Fisher Scientific). cDNA was further diluted, and 50 ng was used for SYBR green (Thermo Fisher Scientific) based qRT-PCR. Relative gene expression was calculated by the delta Ct method and normalized to 36b4 levels as loading controls. qPCR primers for gene expression analysis are listed in Supplementary Table 3. […]

[2] = molecular target: T2, His-tagged CAR-LBD-SRC1 fusion protein (Homo sapiens, UniProt Q14994); experiment: Isothermal titration calorimetry (ITC); assay type: binding; conditions: 25 °C; ligand 50 μM; mean of two independent experiments
T2 construct: The human CAR LBD (Lys^108 – Ser^352) was amplified by PCR from cDNA; HIS6; made in house; host or cells: E. coli BL21(DE3)
T2 sequence (Q14994 108-352): T1 sequence (Q14994 108-352)
Experimental: Purified hCAR-SRC1 protein (200–250 µM) was dissolved in 120 μL of PBS and supplemented with 0.5% DMSO. All experiments were performed in a MicroCal Auto-iTC200 instrument (Malvern Panalytical, Marlvern, United Kingdom) at 25 °C. Ligands were used at a concentration of 50 μM. Protein was titrated into cells in a series of 19 injections (injection 1 = 0.4 µL, injection 2–19 = 2 µL) 180 s apart. Control experiments performed by injection of the potein into […] yielded insignificant heats of dilution, and heat responses were subtracted. Integrated heat effects were analyzed using Microcal Origin 7 software (Malvern Instruments).

[3] = test system: cyp2b6, cyp3a4, sult2a1 mRNA in PHH; experiment: RT-qPCR of CAR target genes in primary human hepatocytes; assay type: cell-based; conditions: two donors, 48 h
Experimental: PHH culture, RNA extraction and gene expression analyses were performed as described previously. Primer sequences for cyp2b6, cyp3a4, sult2a1, and glyceraldehyde-3-phosphate dehydrogenase (gapdh) are shown in Supplementary Table 3.

[4] = Liver-to-body weight ratio after treatment; assay type: in vivo
Experimental: (§1) 12–15 week-old C57BL/6 J mice were obtained from Jackson Laboratories and were housed on a standard 12 h light/dark cycle. Nr1i3^−/− mice with C57BL/6 J background were obtained from David Moore’s lab (PMID: 11057673) at Baylor College of Medicine, and used at 13–26 weeks of age. Wild-type male, female and Nr1i3^−/− male mice were used in this study, due to known sex-specific CAR activities. Mice were housed in groups of 2–5 mice per cage on a standard 12 h light/dark cycle and fed with rodent chow diet (Inotiv, Teklad rodent diet 2918). Temperature was maintained at 21 °C with a range of 21–24 °C and humidity at 16–51%. National Institute of Health guidelines for the care and use of laboratory animals were followed with all experiments performed as directed by the Institutional Animal Care and Use Committee at the University of Illinois, Urbana-Champaign (UIUC, IACUC protocol: 22183). Mice were acclimatized to the UIUC mouse facility for 2 weeks prior to experiments. DIM and DIE were dissolved in 5% DMSO in corn oil and injected intraperitoneally at 25 mg/kg once daily for three days. After 4 h of the third injection, mice were sacrificed to collect serum, livers and intestines. TCPOBOP was dissolved in corn oil and injected intraperitoneally at 3 mg/kg once and the livers collected after 3 days for further studies. When used to block CAR activity, 100 mg/kg androstenol was injected intraperitoneally 15 min prior to the first DIM or DIE treatment. RNA from mice livers was isolated using TRIzol (Invitrogen) reagent using the manufacturer’s instructions. 3–5 µg of RNA was used to synthesize cDNA with random primers (NEBioLabs) and Maxima Reverse Transcriptase kits (Thermo Fisher Scientific). cDNA was further diluted, and 50 ng was used for SYBR green (Thermo Fisher Scientific) based qRT-PCR. Relative gene expression was calculated by the delta Ct method and normalized to 36b4 levels as loading controls. qPCR primers for gene expression analysis are listed in Supplementary Table 3.

[5] = test system: mCAR target genes (cyp2b10, cyp3a11, sult2a1) in mouse liver; experiment: qPCR of mCAR target genes in mouse liver after intraperitoneal treatment; assay type: in vivo; conditions: for cyp2b10 expression in liver, wild-type mice: 25 mg/kg i.p. once daily for three days; for sult2a1 expression in liver: WT or Nr1i3-/- mice; for cyp3a11 expression in liver: mouse liver, with or without And pre-treatment
Experimental: as §1

Row | SMILES | Tm (hCAR LBD-SRC1 protein) [°C] | compound levels in tissues of Nr1i3-/- versus WT mice ([1]; duodenum, jejunum, ileum, liver, male mice treated with diindoles) | liver histology (H&E) findings (Liver histology (H&E); after treatment) | Kd [2] [µM] | cyp2b6 mRNA expression [3] | cyp3a4 mRNA expression (joint CAR/PXR target gene) [3] | sult2a1 mRNA expression (non-target gene) [3] | liver weight / liver-to-body weight ratio ([4]; post-treatment, compared to control) | cyp2b10 expression in liver, wild-type mice [5] | sult2a1 expression in liver [5] | cyp3a11 expression in liver [5] | compound levels in tissues of Nr1i3-/- versus WT mice ([1]; mouse, in vivo) | liver histology (H&E) findings (Liver histology (H&E); mouse, in vivo) | liver weight / liver-to-body weight ratio ([4]; mouse, in vivo)
1 | CC(c1c[nH]c2ccccc12)c1c[nH]c2ccccc12 [DIE, 3,3’-diindolylethane] | 59.6 | increased dramatically | no increase in hepatocyte size, cytoplasmic swelling, obvious damage or inflammation | 0.25 | selectively upregulated | more variable | no effects | no significant changes | robustly induced | did not show significant responses | did not affect |  |  | 
2 | c1ccc2c(Cc3c[nH]c4ccccc34)c[nH]c2c1 [DIM, diindolylmethane] | 57.1 |  |  | 3.9 | selectively upregulated | more variable | no effects |  | robustly induced | did not show significant responses | did not affect | increased dramatically | no increase in hepatocyte size, cytoplasmic swelling, obvious damage or inflammation | no significant changes
